These are literature values, as cited in PMC8196580, “Identification of Kaurane-Type Diterpenes as Inhibitors of Leishmania Pteridine Reductase I” (Molecules, 2021).

Holding throughout (set-up): method as in earlier work
One data set has as its system Plasmodium falciparum. The note with it: in vitro, ref 27 (Nogueira et al.); cited from earlier work.
A further data set relates to Leishmania donovani. The following applies: in vitro, ref 27 (Nogueira et al.); cited from earlier work.
The subject of a further data set is L6 cells. The note with it: in comparison with L6 cells; ref 27 (Nogueira et al.); cited from earlier work.

Bounds are passed on as bounds.

For `C=C1C[C@@]23CC[C@@H]4[C@](C)(CO)[C@H](O)CC[C@@]4(C)[C@@H]2CC[C@@H]1C3` (single isomer, unassigned; ent-3) [ent-3-α-hydroxy-kaur-16-en-18-ol], the IC50 was 3.5 µM with Plasmodium falciparum and 2.5 µM in the data set on Leishmania donovani. Besides, the “Selectivity index, SI” value in the data set on L6 cells is on record as > 10.

As usually defined, the IC50 is the midpoint of a concentration-inhibition curve.
